Reference: PubChem BioAssay (NCI)
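Following 48 hours of exposure in 96-well plates, responses at five concentrations were used to interpolate endpoints linearly. GI50 marks 50% less growth. The concentration for full growth arrest is given as TGI.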

Legend:
Test in all cases: NCI-60 cell line screen, 48 h
SK-OV-3 ovarian = tested on: SK-OV-3 ovarian
M19-MEL melanoma = tested on: M19-MEL melanoma
UACC-62 melanoma = tested on: UACC-62 melanoma
DMS 114 small cell lung = tested on: DMS 114 small cell lung
SF-268 CNS = tested on: SF-268 CNS
RXF 393 renal = tested on: RXF 393 renal
SN12C renal = tested on: SN12C renal
SK-MEL-28 melanoma = tested on: SK-MEL-28 melanoma
UACC-257 melanoma = tested on: UACC-257 melanoma
786-0 renal = tested on: 786-0 renal

Structure (SMILES) | TGI (SK-OV-3 ovarian) [µM] | TGI (M19-MEL melanoma) [µM] | TGI (UACC-62 melanoma) [µM] | TGI (DMS 114 small cell lung) [µM] | TGI (SF-268 CNS) [µM] | TGI (RXF 393 renal) [µM] | TGI (SN12C renal) [µM] | TGI (SK-MEL-28 melanoma) [µM] | TGI (UACC-257 melanoma) [µM] | TGI (786-0 renal) [µM] | GI50 (M19-MEL melanoma) [µM] | GI50 (SK-OV-3 ovarian) [µM] | GI50 (UACC-62 melanoma) [µM] | GI50 (DMS 114 small cell lung) [µM] | GI50 (SF-268 CNS) [µM] | GI50 (RXF 393 renal) [µM] | GI50 (SN12C renal) [µM] | GI50 (SK-MEL-28 melanoma) [µM] | GI50 (UACC-257 melanoma) [µM]
CNC(C)(C)Cc1ccc(Cl)cc1 | > 100 | > 100 | > 100 | > 100 | > 100 | > 100 | > 100 | > 100 | > 100 | > 100 |  |  |  |  |  |  |  |  | 
COc1cc(C2c3c(ccc4ccccc34)C(=O)C3CCC(=O)N32)cc(OC)c1OC (stereo not given) | > 50 |  | > 50 |  | > 50 | > 50 | > 50 | > 50 | > 50 | > 50 |  |  |  |  |  |  |  |  | 
COC(=O)Cc1cc(O)c2c(c1O)C(=O)c1ccccc1C2=O | > 100 | > 100 | > 100 | > 100 | > 100 | 63.7 | > 100 | > 100 | > 100 | > 77.1 |  |  |  |  |  |  |  |  | 
C1=C(c2ccccc2)SC(N2CCCCC2)S1 (stereo not given) | > 100 | > 100 | > 100 | > 100 | > 100 | > 100 | > 100 |  | > 100 |  |  |  |  |  |  |  |  |  | 
N=C1C(=N)c2ccccc2-c2ccccc21.[Cl-].[Ru+2].c1ccc(-c2ccccn2)nc1.c1ccc(-c2ccccn2)nc1 | > 100 | > 100 | > 100 |  | > 100 | > 100 | > 100 | > 100 | > 100 | > 100 | > 100 |  |  |  |  |  |  |  | 
COC1=NCc2ccccc2-c2ccccc21 | > 100 |  | > 100 | > 100 | > 100 | > 100 | > 100 | > 100 | > 100 | > 100 |  |  |  |  |  |  |  |  | 
C=CCSC1=N/C(=C\c2ccc(Cl)cc2)C(=O)N1CC=C | > 100 |  | > 100 |  | > 100 | 45.3 | 95.1 | > 100 | 76.7 | > 100 |  |  |  |  |  |  |  |  | 
CCCCCOc1ccc(C=Nc2ccc(CCc3ccc(N=Cc4ccc(OCCCCC)cc4)cc3)cc2)cc1 | > 100 | > 100 | > 100 | > 100 | > 100 | > 100 | > 100 | > 100 | > 100 |  |  |  |  |  |  |  |  |  | 
CC1CC[C@@]2(OC1)OC1C[C@H]3[C@@H]4CC=C5CC(OC6OC(CO)C(OC7OC(CO)C(O)C(OC8OCC(O)C(O)C8O)C7OC7OC(CO)C(OC8OC(C)C(OC9OC(C)C(O)C(O)C9O)C(O)C8O)C(O)C7O)C(O)C6O)CCC5(C)[C@H]4CCC3(C)C1[C@@H]2C (stereo not given in full) | 17.3 |  | 17.7 |  | 18 | 14.2 | 17 | 20.1 | 18.1 | 10.3 |  |  |  |  |  |  |  |  | 
COC1CC(N)(c2ccccc2)C(O)C(C)O1 (stereo not given) | > 100 |  | > 100 |  | > 100 | > 100 | > 100 | > 100 | > 100 | > 100 |  |  |  |  |  |  |  |  | 
NC(=O)Nc1c(Cl)cc(S(N)(=O)=O)cc1Cl | > 100 |  | > 100 |  | > 100 | > 100 | > 100 | > 100 | > 100 | > 100 |  |  |  |  |  |  |  |  | 
[N-]=[N+]=Nc1c(Cc2ccccc2)c(Cl)nc2ccccc12 | > 100 |  | 68.8 |  | > 100 | 39.6 | 73.8 | > 100 | > 100 | > 100 |  |  |  |  |  |  |  |  | 
CCOC(=O)C(C#N)(Cc1c[nH]c2ccccc12)NC(C)=O (stereo not given) | > 100 | > 100 | > 100 | > 100 | > 100 | > 100 | > 100 | > 100 | > 100 |  |  |  |  |  |  |  |  |  | 
Cc1ccc(C(=N)c2ccccc2Cc2cccc3ccccc23)c2ccccc12 | > 100 |  | > 100 |  | > 100 | > 100 | > 100 | > 100 | > 100 | > 100 |  |  |  |  |  |  |  |  | 
O=C(O)CC(Cc1ccccc1Cl)C(=O)O (stereo not given) | > 100 |  | > 100 |  | > 100 | > 100 | > 100 | > 100 | > 100 | > 100 |  |  |  |  |  |  |  |  | 
O=C(O)CCc1nc2c(n1-c1ccccc1)C(=O)c1ccccc1C2=O | > 100 |  | > 100 |  | > 100 | > 100 | > 100 | > 100 | > 100 | > 100 |  |  |  |  |  |  |  |  | 
O=C1c2cccc([N+](=O)[O-])c2C(=O)N1Cc1ccccc1 | > 100 |  | > 100 |  | > 100 | > 100 | > 100 | > 100 | > 100 | > 100 |  |  |  |  |  |  |  |  | 
Cc1cc([NH-])c([NH-])cc1C.[Cl][Pt+2][Cl] | > 100 | 31.2 | 27.3 | 32.3 | 34.6 | 31.1 | 24.6 | 39.5 | > 67.2 |  | 8.79 | > 96.8 | 8.88 | 8.09 | 6.27 | 16.3 | 8.13 | 16.7 | 22.4
C[C@@]1(O)C2CC3CC1(c1ccccc1)CC(/C3=N/O)/C2=N\O (stereo not given in full) | > 100 |  | > 100 |  | > 100 | > 100 | > 100 | > 100 | > 100 | > 100 |  |  |  |  |  |  |  |  | 
CCC/C(Cl)=N\OC(=O)Nc1ccc(F)cc1 | > 59.7 |  | 27.5 |  | > 65 | 33.1 | 31 | 38.4 | 30.5 | 17.5 |  |  |  |  |  |  |  |  | 
C=CCOC(=O)N1c2ccc(O[Si](C)(C)C(C)(C)C)cc2[C@@]23O[C@@]24[C@@H]1C#C/C=C\C#C[C@]3(O)C(OC)(OC)C[C@@H]4C | > 100 |  | > 42 |  | > 100 | > 100 | > 100 | > 100 | > 100 | > 100 |  |  |  |  |  |  |  |  | 
COc1ccc([C@H]2[C@H]3COC(=O)[C@H]3C(C#N)=C3Sc4ccccc4N32)cc1 | > 100 |  | > 100 |  | > 100 | 38.4 | 36.4 | > 100 | > 100 | > 100 |  |  |  |  |  |  |  |  | 
